Experimental findings from ChEMBL document CHEMBL5653615 (J Biol Chem, 2013) are described below.

Broadly, the inhibition is the change of the read-out against control, counted positive when it falls.

The target of assay [1] is STE20/SPS1-related proline-alanine-rich protein kinase (Homo sapiens) (UniProt Q9UEW8). Put plainly: Inhibition of human STLK3 at 500 nM by HotSpot assay relative to control.
The target of assay [2] is Ephrin type-A receptor 5 (Homo sapiens) (UniProt P54756). Kind of assay: Inhibition of human EPHA5 at 500 nM by HotSpot assay relative to control.
Chain of Ephrin type-A receptor 5 (Homo sapiens) (P54756 whole entry): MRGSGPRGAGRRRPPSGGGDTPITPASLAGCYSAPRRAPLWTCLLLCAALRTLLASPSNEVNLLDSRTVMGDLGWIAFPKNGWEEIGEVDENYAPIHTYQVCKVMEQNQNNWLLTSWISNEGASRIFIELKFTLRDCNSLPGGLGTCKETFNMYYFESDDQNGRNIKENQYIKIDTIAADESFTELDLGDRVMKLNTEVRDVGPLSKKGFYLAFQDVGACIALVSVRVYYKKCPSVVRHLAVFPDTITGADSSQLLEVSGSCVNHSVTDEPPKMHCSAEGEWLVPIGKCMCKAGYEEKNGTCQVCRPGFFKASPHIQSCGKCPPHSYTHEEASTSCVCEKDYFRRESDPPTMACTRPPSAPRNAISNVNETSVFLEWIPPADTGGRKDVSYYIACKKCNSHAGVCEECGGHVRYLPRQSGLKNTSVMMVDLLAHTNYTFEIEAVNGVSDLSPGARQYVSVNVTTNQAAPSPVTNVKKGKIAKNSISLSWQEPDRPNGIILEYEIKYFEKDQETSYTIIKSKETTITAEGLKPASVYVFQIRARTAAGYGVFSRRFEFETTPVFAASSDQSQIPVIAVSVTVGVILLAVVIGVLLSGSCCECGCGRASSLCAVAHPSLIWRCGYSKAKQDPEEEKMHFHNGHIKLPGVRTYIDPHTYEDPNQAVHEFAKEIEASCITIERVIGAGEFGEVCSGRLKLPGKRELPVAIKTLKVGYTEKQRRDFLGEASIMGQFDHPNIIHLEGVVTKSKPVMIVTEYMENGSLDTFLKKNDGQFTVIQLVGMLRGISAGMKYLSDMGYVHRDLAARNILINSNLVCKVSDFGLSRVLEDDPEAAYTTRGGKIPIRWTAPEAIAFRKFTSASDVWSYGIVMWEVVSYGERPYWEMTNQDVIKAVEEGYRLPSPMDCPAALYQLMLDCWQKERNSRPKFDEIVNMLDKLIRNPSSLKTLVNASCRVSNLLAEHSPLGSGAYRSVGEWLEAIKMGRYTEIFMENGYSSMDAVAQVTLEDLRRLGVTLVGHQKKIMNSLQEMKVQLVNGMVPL
The target in assay [3] is Ephrin type-B receptor 4 (Homo sapiens) (UniProt P54760). Put plainly: Inhibition of human EPHB4 at 500 nM by HotSpot assay relative to control.
Chain of Ephrin type-B receptor 4 (Homo sapiens) (P54760 whole entry): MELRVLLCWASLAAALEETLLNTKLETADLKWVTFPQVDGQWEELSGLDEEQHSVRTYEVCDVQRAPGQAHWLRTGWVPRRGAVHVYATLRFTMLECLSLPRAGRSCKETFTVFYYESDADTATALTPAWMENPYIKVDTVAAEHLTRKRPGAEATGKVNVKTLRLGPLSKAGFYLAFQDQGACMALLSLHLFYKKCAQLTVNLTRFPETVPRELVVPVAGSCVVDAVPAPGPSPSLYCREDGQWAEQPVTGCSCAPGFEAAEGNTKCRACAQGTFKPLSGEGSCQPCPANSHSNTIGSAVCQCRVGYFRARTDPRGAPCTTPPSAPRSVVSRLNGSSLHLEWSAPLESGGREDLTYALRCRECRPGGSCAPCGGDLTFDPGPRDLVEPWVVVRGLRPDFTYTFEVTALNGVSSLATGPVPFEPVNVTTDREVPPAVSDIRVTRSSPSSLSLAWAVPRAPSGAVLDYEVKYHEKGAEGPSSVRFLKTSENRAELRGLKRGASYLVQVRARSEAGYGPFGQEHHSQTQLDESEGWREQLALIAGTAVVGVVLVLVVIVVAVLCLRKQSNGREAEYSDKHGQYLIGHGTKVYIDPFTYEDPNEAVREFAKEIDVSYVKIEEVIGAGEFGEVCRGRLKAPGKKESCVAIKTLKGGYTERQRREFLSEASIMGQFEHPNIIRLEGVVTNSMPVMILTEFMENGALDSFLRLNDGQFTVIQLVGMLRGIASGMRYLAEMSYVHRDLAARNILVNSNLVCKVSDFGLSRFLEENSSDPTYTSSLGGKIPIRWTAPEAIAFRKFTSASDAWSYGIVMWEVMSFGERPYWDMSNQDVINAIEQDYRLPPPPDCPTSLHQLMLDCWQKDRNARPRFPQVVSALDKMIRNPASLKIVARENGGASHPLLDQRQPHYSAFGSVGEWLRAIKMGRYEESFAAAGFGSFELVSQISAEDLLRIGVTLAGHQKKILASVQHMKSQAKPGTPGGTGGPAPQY
Assay [4] has as its target T1, Tyrosine-protein kinase Mer (Homo sapiens) (UniProt Q12866).
T1 sequence (whole entry): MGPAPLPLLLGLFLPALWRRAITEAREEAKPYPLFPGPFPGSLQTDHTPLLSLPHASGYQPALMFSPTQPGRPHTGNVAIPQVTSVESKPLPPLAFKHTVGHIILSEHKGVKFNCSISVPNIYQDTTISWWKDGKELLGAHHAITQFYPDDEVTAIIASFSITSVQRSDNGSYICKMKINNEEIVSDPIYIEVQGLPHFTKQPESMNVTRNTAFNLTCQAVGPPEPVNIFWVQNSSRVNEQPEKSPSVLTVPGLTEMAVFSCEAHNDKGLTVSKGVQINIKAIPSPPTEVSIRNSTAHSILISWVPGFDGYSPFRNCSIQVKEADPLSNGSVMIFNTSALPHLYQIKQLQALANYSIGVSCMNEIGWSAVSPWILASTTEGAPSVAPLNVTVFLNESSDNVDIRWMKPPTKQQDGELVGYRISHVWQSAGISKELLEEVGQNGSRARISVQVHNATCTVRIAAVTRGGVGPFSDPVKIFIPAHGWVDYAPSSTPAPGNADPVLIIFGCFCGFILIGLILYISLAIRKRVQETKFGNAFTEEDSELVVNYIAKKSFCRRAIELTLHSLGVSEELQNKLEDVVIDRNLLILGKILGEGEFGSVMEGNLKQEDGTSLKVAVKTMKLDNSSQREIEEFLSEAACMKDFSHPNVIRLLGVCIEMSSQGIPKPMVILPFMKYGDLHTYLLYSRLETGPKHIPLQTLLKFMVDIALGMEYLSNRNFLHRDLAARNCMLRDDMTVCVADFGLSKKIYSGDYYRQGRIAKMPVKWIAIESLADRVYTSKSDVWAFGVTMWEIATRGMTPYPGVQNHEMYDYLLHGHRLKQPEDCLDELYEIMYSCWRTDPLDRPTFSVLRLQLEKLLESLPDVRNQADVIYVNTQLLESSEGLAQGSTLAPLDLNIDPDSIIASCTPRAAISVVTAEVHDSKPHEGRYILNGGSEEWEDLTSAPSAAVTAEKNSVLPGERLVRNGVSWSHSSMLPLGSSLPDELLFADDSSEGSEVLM
Kind of assay: Inhibition of human c-MER at 500 nM by HotSpot assay relative to control.

In assay [5] the target is cAMP-dependent protein kinase (PKA) (Homo sapiens) (UniProt P22694+P17612+P22612). Put plainly: Inhibition of human PKA at 500 nM by HotSpot assay relative to control. It counts as protein assay.
Assay [6] concerns the target T2, NUAK family SNF1-like kinase 2 (Homo sapiens) (UniProt Q9H093).
T2 sequence (whole entry): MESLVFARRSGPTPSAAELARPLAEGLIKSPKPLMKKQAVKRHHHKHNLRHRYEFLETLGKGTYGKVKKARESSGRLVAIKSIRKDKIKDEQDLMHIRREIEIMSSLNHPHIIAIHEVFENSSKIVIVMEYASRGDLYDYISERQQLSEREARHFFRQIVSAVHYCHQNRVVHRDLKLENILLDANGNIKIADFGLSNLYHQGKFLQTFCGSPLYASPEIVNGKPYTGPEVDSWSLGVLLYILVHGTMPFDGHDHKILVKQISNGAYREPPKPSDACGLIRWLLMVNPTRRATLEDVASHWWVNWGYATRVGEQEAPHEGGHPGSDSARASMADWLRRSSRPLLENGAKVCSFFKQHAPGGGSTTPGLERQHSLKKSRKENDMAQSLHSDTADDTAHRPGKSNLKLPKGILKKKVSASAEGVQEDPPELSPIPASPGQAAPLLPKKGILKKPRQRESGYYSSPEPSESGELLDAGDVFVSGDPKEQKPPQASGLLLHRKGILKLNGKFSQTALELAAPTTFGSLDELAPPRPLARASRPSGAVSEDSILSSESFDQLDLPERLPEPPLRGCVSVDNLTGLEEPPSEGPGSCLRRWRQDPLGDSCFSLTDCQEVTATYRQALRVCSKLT
Put plainly: Inhibition of human NUAK2 at 500 nM by HotSpot assay relative to control.

The target in assay [7] is Calcium/calmodulin-dependent protein kinase type II subunit alpha (Homo sapiens) (UniProt Q9UQM7). Kind of assay: Inhibition of human CAMK2a at 500 nM by HotSpot assay relative to control.
Chain of Calcium/calmodulin-dependent protein kinase type II subunit alpha (Homo sapiens) (Q9UQM7 whole entry): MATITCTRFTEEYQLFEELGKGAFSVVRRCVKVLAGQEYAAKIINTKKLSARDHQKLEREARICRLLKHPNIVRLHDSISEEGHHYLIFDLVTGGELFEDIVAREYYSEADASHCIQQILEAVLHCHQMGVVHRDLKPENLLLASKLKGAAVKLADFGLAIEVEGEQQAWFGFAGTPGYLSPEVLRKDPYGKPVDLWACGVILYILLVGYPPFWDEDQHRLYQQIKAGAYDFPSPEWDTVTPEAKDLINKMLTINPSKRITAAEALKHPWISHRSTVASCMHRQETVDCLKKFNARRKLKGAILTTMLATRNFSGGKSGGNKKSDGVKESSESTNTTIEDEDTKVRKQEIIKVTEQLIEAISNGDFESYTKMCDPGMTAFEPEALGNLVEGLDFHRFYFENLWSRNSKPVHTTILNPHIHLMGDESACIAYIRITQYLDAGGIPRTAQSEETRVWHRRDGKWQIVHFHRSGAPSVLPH
Assay [8] has as its target Macrophage colony-stimulating factor 1 receptor (Homo sapiens) (UniProt P07333). Put plainly: Inhibition of human FMS at 500 nM by HotSpot assay relative to control.
Assay [9] concerns the target Hepatocyte growth factor receptor (Homo sapiens) (UniProt P08581). Kind of assay: Inhibition of human c-MET at 500 nM by HotSpot assay relative to control.
Assay [10] concerns the target Fibroblast growth factor receptor 2 (Homo sapiens) (UniProt P21802). Put plainly: Inhibition of human FGFR2 at 500 nM by HotSpot assay relative to control.
The target in assay [11] is Serine/threonine-protein kinase PAK 1 (Homo sapiens) (UniProt Q13153). Put plainly: Inhibition of human PAK1 at 500 nM by HotSpot assay relative to control.
Chain of Serine/threonine-protein kinase PAK 1 (Homo sapiens) (Q13153 whole entry): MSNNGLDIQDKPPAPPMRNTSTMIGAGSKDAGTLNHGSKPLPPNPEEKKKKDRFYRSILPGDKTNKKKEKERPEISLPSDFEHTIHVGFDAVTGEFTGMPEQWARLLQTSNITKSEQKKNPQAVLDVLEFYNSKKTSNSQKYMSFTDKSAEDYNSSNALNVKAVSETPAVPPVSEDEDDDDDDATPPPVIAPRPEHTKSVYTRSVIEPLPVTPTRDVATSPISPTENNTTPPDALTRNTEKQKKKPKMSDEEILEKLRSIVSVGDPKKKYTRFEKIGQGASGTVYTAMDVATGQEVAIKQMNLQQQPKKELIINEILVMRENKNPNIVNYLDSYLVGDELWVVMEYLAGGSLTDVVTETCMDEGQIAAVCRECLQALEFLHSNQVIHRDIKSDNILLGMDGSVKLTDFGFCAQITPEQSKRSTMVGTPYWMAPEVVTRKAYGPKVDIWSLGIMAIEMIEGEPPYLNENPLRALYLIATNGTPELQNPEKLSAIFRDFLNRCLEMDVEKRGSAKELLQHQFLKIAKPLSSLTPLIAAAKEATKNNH

Each structure is given as a SMILES string.

Chain of Macrophage colony-stimulating factor 1 receptor (Homo sapiens) (P07333 whole entry): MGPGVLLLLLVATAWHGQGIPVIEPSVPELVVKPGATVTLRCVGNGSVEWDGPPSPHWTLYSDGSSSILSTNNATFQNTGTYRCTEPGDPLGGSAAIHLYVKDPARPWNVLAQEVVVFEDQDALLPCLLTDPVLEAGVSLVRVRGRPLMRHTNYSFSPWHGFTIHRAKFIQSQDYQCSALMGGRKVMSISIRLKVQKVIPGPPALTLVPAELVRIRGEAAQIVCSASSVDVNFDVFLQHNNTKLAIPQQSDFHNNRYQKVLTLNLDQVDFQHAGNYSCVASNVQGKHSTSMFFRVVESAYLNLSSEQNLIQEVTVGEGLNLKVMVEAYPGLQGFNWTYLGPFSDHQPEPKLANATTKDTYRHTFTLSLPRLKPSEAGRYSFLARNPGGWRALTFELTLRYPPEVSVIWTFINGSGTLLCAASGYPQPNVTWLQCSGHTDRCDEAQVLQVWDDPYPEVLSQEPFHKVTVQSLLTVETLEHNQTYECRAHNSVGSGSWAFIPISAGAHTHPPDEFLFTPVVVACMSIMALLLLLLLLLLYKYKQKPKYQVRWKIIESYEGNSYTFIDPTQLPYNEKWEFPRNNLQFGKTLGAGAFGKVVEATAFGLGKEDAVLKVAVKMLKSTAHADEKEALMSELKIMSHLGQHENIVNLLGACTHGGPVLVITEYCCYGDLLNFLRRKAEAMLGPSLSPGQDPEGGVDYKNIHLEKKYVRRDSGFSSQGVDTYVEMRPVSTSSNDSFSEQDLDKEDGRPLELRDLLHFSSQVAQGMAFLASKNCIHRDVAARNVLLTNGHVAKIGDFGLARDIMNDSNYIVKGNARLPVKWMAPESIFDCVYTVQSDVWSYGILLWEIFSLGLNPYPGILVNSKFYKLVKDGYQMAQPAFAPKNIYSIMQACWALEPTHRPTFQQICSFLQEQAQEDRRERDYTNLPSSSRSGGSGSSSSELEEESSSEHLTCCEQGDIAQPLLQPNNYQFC
Chain of Fibroblast growth factor receptor 2 (Homo sapiens) (P21802 22-821 limits assumed): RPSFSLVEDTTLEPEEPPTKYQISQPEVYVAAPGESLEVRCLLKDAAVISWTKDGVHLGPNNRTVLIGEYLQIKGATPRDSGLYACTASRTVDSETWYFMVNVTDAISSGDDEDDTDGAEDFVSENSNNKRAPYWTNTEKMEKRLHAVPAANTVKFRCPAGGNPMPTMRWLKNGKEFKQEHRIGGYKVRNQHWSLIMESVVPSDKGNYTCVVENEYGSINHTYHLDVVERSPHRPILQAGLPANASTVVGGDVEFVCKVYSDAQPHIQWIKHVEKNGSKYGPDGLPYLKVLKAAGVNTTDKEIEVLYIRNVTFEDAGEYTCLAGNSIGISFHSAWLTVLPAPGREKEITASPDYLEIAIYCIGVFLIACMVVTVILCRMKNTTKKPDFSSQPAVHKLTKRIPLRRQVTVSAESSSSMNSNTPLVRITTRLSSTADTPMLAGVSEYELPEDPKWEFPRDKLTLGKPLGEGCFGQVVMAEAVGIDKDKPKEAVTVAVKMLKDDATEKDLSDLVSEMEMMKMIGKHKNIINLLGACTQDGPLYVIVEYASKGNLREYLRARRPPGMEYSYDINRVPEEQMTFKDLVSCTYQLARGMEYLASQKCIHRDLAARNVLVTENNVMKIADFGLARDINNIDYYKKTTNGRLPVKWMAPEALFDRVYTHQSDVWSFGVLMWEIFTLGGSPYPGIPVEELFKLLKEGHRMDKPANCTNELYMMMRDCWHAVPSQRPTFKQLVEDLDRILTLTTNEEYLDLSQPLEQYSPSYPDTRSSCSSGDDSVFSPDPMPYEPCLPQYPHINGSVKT

For the compound `Oc1n[nH]c2nnc(-c3c(-c4ccccc4)nn4ccccc34)cc12`, the inhibition in [1] was 7.91%; in [2] it was -0.84%; in assay [3] it was 2.91%; in [4], 2%; in assay [5], -5.26%; in [6], -6.46%. Moreover, the inhibition in assay [7] was -5.26%; in assay [8], 5%; in [9] it was 4.83%; in assay [10], -0.03%; in assay [11] it was 7.2%.

With `Nc1n[nH]c2nnc(-c3c(-c4ccccc4)nn4ccccc34)cc12`, the inhibition in assay [1] is 10.9%; in assay [2], -0.54%; in [3], 1.54%; in assay [4] it was 23.6%; in [5] it was 2.35%; in assay [6], 12.7%. The inhibition in assay [7] is -2.07%; in assay [8] it was 3.19%; in assay [9], 5.04%; in [10] it was -1.79%; in assay [11], 8.08%.
